For the data set the following is noted: Crystal; DTA.

± gives the expanded uncertainty stated by the source.

`CCCCCCCCCCCCCCO` [1-tetradecanol]: the Normal melting temperature was determined as 38 ± 2 °C.
As for `CCCCCCCCCCCCCCCCCCCCO` [1-eicosanol], the figure is 64 ± 2 °C.

For the origin of these results see the NIST ThermoML archive (doi:10.1016/j.fluid.2014.07.021).
